Measurements: patent publication US6774121B1, “Phospholipid prodrugs of anti-proliferative drugs” (D-Pharm, Ltd., priority 1999, dated 2004)
Read-outs that look alike come from different tables or passages of the source.

Experiments:
[1] = test system: RFC-mediated MTX-resistant cell line (L1210-MTX); test: MTT cytotoxicity, L1210-MTX cells (Example 9); type: cell-based; settings: Mus musculus
A431 = test: MTT cytotoxicity on tumor cell lines, A431 (Example 8); type: cell-based; settings: A-431, A431, Epidermoid carcinoma (human), 72 hours
Experimental: (§1) Cell viability was analyzed after 72 hours incubation (37° C., 5% CO2) using the colorimetric MTT assay (Mosmann (1983) J. Immunol Methods 65: 55-63).

T47D = test: MTT cytotoxicity on tumor cell lines, T47D (Example 8); type: cell-based; settings: Mammary cancer (human), 72 hours
Experimental: as §1

[2] = test system: human leukemia cell line CCRF-CEM (CEM); test: MTT cell growth inhibition, CEM cells (Example 4); type: cell-based; settings: Homo sapiens, CCRF-CEM; 72 hours, MTT assay; read-out: EC50, nMol CEM
Experimental: (§2) A series of methotrexate derivatives were screened for their inhibitory effect on cell growth. Three tumor cell lines were used for this screen: i) human leukemia cell line CCRF-CEM which is MTX-sensitive (herein denoted as CEM), ii) a mutant of CEM cell line which is MTX-resistant due to a mutation in the RFC (herein denoted as CEM-MTX; provided by Dr. […], Technion, Israel), and iii) rat C6 glioma cell line. Cells were seeded at a density of 10^4 cells/ml in RPMI medium supplemented with 10% FCS in 96 well plates. The cultured cells were incubated, during their linear growth phase, in the presence and absence of various concentrations of MTX derivatives. The tested compounds were prepared as 1 mM stock in absolute ethanol or DMSO and were diluted into the medium. The highest vehicle presence in the assay was 5% of the vehicle. After 72 hours at 37° C. the cytotoxic effect on the cells was estimated by using the colorimetric MTT assay (Mosmann (1983) J. Immunol Methods 65: 55-63) that measures mitochondrial reductase activity and serves for quantitative assessment of cellular viability. […] The EC50 values were calculated from dose response curves for each tested compound.

[3] = test system: L1210 murine leukemia cells; test: Survival of mice transplanted i.p. with L1210 leukemia cells; type: in vivo, mouse
Experimental: The anti-tumor effects of DP-MTX were evaluated in vivo on mice transplanted with L1210 murine leukemia cells.
Mice of strain B6D2F 1/J (stock number 100006), which are F1 cross of C57/BJ×DBA/2J, were purchased from The Jackson Laboratory (JAX Mice & Mouse Model Related Services, […], USA). Animals were allowed 10 days adjustment time at our animal care facility before initiation of the experiment.
Mice were transplanted with 1×10^6 L1210 (mouse leukemia; ATCC# CCL-219) or L1210MTX (RFC-mediated MTX resistant L1210 mutant; provided by Dr. Y. Assraf, Technion, Israel) cells by injection into the peritoneum (i.p.) (day 1). […] Another group of 8 animals were injected with vehicle solution (2% propylene-glycol, 0.2% Tween-80 in PBS) and serve as control group. […] Mice survival was monitored daily until the end of the experiment on day 21.

Jurkat = test: MTT cytotoxicity on tumor cell lines, Jurkat (Example 8); type: cell-based; settings: Homo sapiens, T-cell lymphoma, 72 hours
Experimental: as §1

J774 = test: MTT cytotoxicity on tumor cell lines, J774 (Example 8); type: cell-based; settings: J774, Myeloma (mouse), 72 hours
Experimental: as §1

[4] = test system: Wild type human leukemia CEM cells; test: MTT cytotoxicity with and without Leucovorin, CEM cells (Example 6); type: cell-based; settings: CCRF-CEM, 72 hours
Experimental: (§3) Leucovorin is a reduced folate, used in chemotherapy with high doses of methotrexate for ‘rescue’ of host from toxicity.
(§4) Wild type human leukemia CEM cells or the MTX-resistant mutant cells, CEM-MTX, were plated into 96 well plates containing RPMI, 10% FCS at a concentration of 5×10^4 cells/ml. […] Leucovorin, at a final concentration of 10 μM, was added to some of the plates as indicated. The plates were incubated for 72 hours (37° C., 5% CO2) before being assayed for viability using the colorimetric MTT assay (Mosmann (1983) J. Immunol Methods 65: 55-63).

[5] = test system: CEM-MTX (MTX-resistant mutant of CEM, mutation in the RFC); test: MTT cell growth inhibition, MTX-resistant CEM-MTX cells (Example 4); type: cell-based, human; settings: Homo sapiens; 72 hours, MTT assay; read-out: EC50, nMol CEM-MTX
Experimental: A series of methotrexate derivatives were screened for their inhibitory effect on cell growth. Three tumor cell lines were used for this screen: i) human leukemia cell line CCRF-CEM which is MTX-sensitive (herein denoted as CEM), ii) a mutant of CEM cell line which is MTX-resistant due to a mutation in the RFC (herein denoted as CEM-MTX; provided by Dr. Y. Assraf, Technion, Israel), and iii) rat C6 glioma cell line.
Cells were seeded at a density of 10^4 cells/ml in RPMI medium supplemented with 10% FCS in 96 well plates. The cultured cells were incubated, during their linear growth phase, in the presence and absence of various concentrations of MTX derivatives. The tested compounds were prepared as 1 mM stock in absolute ethanol or DMSO and were diluted into the medium. The highest vehicle presence in the assay was 5% of the vehicle. After 72 hours at 37° C. the cytotoxic effect on the cells was estimated by using the colorimetric MTT assay (Mosmann (1983) J. Immunol Methods 65: 55-63) that measures mitochondrial reductase activity and serves for quantitative assessment of cellular viability. Drug concentration required for inhibiting the growth of 50% of cell population in culture over a 72 hour period incubation, is defined as EC50.
The EC50 values were calculated from dose response curves for each tested compound.

L1210 = test: MTT cytotoxicity on tumor cell lines, L1210 (Example 8); type: cell-based; settings: L1210, lymphocytic leukemia (mouse), 72 hours
Experimental: as §1

rat C6 glioma cell line = test: MTT cell growth inhibition, C6 glioma cells (Example 4); type: cell-based; settings: Rattus norvegicus, C6 glioma; 72 hours, MTT assay; read-out: EC50, nMol C6 glioma
Experimental: as §2

[6] = test system: MTX-resistant mutant cells, CEM-MTX; test: MTT cytotoxicity with and without Leucovorin, CEM-MTX cells (Example 6); type: cell-based; settings: Homo sapiens, 72 hours
Experimental: as §3, §4

N87 = test: MTT cytotoxicity on tumor cell lines, N87 (Example 8); type: cell-based; settings: N87, Gastric carcinoma (human), 72 hours
Experimental: as §1

Du148 = test: MTT cytotoxicity on tumor cell lines, Du148 (Example 8); type: cell-based; settings: Du148, Prostate cancer (human), 72 hours
Experimental: as §1

CEM = test: MTT cytotoxicity on tumor cell lines, CEM (Example 8); type: cell-based; settings: CCRF-CEM, T-cell ALL (human), 72 hours
Experimental: as §1

C6 = test: MTT cytotoxicity on tumor cell lines, C6 (Example 8); type: cell-based; settings: C6, Glioma (rat), 72 hours
Experimental: as §1

[7] = 10 μM Leucovorin, read-out: EC50, nMol + 10 μM Leucovorin
[8] = read-out: EC50, nMol No Leucovorin

`CN(Cc1cnc2nc(N)nc(N)c2n1)c1ccc(C(=O)N[C@@H](CCC(=O)O)C(=O)O)cc1` [MTX, Methotrexate] was tested, and the EC50 [1] was 1.08 µM, the EC50 (A431) was 0.85 µM and the EC50 (T47D) was 50 µM. For the same compound, the EC50 [2] was 0.021 µM, the “mice surviving at the end of the experiment, on day 21” value ([3]; 3 mg/Kg MTX or molar equivalent, i.p. every two days, day 3 to 17) was “one” and the “mortality caused by the treatment by itself” value ([3]; 3 mg/Kg i.p.) was “no mortality”. The “day on which animal death started” value ([3]; 3 mg/Kg i.p. every two days, day 3 to 17) was 15 days, the EC50 (Jurkat) was 0.021 µM and the EC50 (J774) was 0.112 µM. The EC50 [4, 7] was 0.91 ± 0.378 µM, the EC50 [4, 8] was 0.023 ± 0.013 µM and the EC50 [5] was 2.54 µM. The EC50 (L1210) was 0.013 µM, the EC50 (rat C6 glioma cell line) was 0.046 µM and the EC50 [6, 7] was 20 ± 12.8 µM. The EC50 [6, 8] was 2.54 ± 0.224 µM, the EC50 (N87) was 13.5 µM and the EC50 (Du148) was 0.029 µM. For the same compound, the EC50 (CEM) was 0.021 µM and the EC50 (C6) was 0.046 µM.
